# Tests used:
# [1] = biological target: FGFR1 (Homo sapiens (Human), UniProt P11362); assay: FGFR Enzymatic Assay (FRET peptide phosphorylation), FGFR1; settings: read-out: FGFR1 IC50; pre-incubated for 4 hours
# From the text: (§1) The enzymes were purchased from Millipore or Invitrogen.
# (§2) GraphPad prism3 was used to analyze the data. The IC50 values were derived by fitting the data to the equation for a sigmoidal dose-response with a variable slope. Y=Bottom+(Top-Bottom)/(1+10^((LogIC50−X)*HillSlope)) where X is the logarithm of concentration and Y is the response.
# [2] = biological target: FGFR4 (Homo sapiens (Human), UniProt P22455); assay: FGFR Enzymatic Assay (FRET peptide phosphorylation), FGFR4; settings: pre-incubated for 4 hours; for FGFR1/FGFR4 IC50 ratio / FGFR2/FGFR4 IC50 ratio / FGFR3/FGFR4 IC50 ratio: IC50 ratio showing FGFR4 selectivity; for IC50: read-out: FGFR4 IC50
# From the text: as §1, §2
# [3] = biological target: FGFR2 (Homo sapiens (Human), UniProt P21802); assay: FGFR Enzymatic Assay (FRET peptide phosphorylation), FGFR2; settings: read-out: FGFR2 IC50; pre-incubated for 4 hours
# From the text: as §1, §2
# [4] = biological target: FGFR3 (Homo sapiens (Human), UniProt P22607); assay: FGFR Enzymatic Assay (FRET peptide phosphorylation), FGFR3; settings: read-out: FGFR3 IC50; pre-incubated for 4 hours
# Sequence of FGFR3 (P22607 23-806): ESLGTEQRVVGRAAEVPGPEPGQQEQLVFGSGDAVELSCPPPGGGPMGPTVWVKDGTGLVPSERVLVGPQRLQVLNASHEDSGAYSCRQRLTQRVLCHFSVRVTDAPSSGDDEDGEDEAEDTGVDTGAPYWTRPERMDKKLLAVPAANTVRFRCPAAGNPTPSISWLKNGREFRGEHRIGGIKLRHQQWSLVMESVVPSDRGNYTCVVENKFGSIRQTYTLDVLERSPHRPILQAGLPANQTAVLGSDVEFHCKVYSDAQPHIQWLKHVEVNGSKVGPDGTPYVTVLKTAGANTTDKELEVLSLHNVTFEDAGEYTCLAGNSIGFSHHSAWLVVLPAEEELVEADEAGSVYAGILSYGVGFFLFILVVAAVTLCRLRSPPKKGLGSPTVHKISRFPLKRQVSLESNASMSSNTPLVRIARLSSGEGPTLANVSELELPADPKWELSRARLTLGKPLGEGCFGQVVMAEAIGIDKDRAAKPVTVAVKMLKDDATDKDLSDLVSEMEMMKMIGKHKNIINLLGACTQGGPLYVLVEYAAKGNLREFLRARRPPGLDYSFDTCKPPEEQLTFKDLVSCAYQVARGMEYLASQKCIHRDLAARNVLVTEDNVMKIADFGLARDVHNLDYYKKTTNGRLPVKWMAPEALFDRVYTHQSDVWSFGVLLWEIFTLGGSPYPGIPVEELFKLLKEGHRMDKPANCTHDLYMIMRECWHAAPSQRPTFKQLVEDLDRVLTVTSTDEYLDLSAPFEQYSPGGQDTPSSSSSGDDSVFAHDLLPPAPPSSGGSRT
# From the text: as §1, §2
# Sequence of FGFR4 (P22455 22-802): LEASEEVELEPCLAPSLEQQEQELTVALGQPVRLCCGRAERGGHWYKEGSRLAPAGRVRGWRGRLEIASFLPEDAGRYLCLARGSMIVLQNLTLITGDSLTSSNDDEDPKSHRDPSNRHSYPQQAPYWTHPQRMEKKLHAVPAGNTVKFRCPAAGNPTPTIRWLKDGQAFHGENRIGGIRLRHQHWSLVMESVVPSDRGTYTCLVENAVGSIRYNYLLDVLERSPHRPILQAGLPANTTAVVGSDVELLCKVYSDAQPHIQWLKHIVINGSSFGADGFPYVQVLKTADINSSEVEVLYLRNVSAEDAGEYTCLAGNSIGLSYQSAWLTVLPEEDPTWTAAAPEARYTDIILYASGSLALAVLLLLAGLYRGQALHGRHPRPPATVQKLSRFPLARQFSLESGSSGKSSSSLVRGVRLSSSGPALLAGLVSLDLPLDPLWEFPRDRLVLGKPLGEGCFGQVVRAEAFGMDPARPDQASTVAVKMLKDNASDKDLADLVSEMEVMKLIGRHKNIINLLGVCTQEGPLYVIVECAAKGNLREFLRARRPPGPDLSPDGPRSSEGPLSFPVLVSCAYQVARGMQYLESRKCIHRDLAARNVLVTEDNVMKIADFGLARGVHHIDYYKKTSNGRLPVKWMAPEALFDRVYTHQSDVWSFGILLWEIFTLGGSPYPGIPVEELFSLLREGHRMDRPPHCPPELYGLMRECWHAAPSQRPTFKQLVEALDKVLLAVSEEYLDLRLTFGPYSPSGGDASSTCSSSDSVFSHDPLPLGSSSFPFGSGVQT
# Sequence of FGFR1 (P11362 22-822): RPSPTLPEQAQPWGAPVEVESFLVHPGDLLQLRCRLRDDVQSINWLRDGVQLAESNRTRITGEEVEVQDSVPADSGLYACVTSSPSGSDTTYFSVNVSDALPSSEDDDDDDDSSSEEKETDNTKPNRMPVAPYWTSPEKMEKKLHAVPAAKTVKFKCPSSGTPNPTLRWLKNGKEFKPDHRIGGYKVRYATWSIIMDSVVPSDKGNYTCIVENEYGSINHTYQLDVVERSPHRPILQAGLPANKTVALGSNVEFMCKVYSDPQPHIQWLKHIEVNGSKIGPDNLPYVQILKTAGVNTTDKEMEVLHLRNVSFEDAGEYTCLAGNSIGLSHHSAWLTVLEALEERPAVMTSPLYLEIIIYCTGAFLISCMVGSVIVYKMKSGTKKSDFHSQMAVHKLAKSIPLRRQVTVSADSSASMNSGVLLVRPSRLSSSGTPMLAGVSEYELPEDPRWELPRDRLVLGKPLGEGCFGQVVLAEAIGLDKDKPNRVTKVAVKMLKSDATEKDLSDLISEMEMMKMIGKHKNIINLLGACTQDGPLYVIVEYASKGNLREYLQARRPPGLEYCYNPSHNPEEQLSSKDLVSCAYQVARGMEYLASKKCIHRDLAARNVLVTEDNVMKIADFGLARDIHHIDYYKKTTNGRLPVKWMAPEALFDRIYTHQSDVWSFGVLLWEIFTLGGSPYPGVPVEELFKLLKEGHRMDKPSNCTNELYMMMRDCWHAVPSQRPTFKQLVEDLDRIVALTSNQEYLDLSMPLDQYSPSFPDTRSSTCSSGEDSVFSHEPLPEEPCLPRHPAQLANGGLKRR
# Sequence of FGFR2 (P21802 22-821): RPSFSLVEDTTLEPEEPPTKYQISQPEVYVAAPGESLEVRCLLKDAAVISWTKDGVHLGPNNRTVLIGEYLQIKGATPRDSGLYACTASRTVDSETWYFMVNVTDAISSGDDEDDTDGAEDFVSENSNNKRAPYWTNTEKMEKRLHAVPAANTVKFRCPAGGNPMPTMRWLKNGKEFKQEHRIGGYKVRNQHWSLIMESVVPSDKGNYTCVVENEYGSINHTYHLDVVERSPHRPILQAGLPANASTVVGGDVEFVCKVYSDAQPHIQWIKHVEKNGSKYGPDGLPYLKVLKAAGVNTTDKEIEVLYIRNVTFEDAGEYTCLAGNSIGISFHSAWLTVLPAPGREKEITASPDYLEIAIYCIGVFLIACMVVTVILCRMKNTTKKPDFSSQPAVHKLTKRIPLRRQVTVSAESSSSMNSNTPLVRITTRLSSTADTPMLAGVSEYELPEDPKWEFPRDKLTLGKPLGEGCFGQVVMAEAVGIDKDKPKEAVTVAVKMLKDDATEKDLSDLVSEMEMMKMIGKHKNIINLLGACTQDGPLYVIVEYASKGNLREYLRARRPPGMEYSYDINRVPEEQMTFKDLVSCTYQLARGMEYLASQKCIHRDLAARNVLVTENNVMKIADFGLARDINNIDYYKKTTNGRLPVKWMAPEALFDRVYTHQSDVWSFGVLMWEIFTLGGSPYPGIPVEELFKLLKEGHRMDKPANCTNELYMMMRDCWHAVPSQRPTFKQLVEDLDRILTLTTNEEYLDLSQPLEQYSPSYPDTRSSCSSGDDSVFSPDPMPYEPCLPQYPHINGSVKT
Structure (SMILES),IC50 [1],FGFR1/FGFR4 IC50 ratio [2],FGFR2/FGFR4 IC50 ratio [2],FGFR3/FGFR4 IC50 ratio [2],IC50 [2],IC50 [3],IC50 [4]
"C=CC(=O)Nc1cn(CCOC)nc1-c1cc2c(cn1)CN(c1c(F)c(OC)cc(OC)c1F)C(=O)C21CC1 [Example 32, N-(3-(2′-(2,6-difluoro-3,5-dimethoxyphenyl)-3′-oxo-2′,3′-dihydro-1′H-spiro[cyclopropane-1,4′-[2,7]naphthyridine]-6′-yl)-1-(2-methoxyethyl)-1H-pyrazol-4-yl)acrylamide]",> 200 nM,>100,>100,>100,< 10 nM,> 200 nM,> 200 nM
"C=CC(=O)Nc1cn(CCOC(F)(F)F)nc1-c1cc2c(cn1)CN(c1c(F)c(OC)cc(OC)c1F)C(=O)C21CC1 [Example 33, N-(3-(2′-(2,6-difluoro-3,5-dimethoxyphenyl)-3′-oxo-2′,3′-dihydro-1′H-spiro[cyclopropane-1,4′-[2,7]naphthyridine]-6′-yl)-1-(2-(trifluoromethoxy)ethyl)-1H-pyrazol-4-yl)acrylamide]",> 200 nM,>100,>100,>100,< 10 nM,> 200 nM,> 200 nM
"C=CC(=O)Nc1cn(CCN2CCOCC2)nc1-c1cc2c(cn1)CN(c1c(F)c(OC)cc(OC)c1F)C(=O)C21CC1 [Example 34, N-(3-(2′-(2,6-difluoro-3,5-dimethoxyphenyl)-3′-oxo-2′,3′-dihydro-1′H-spiro[cyclopropane-1,4′-[2,7]naphthyridine]-6′-yl)-1-(2-morpholinoethyl)-1H-pyrazol-4-yl)acrylamide]",> 200 nM,>100,>100,>100,< 10 nM,> 200 nM,> 200 nM
"C=CC(=O)Nc1cn(CC2CCOCC2)nc1-c1cc2c(cn1)CN(c1c(F)c(OC)cc(OC)c1F)C(=O)C21CC1 [Example 35, N-(3-(2′-(2,6-difluoro-3,5-dimethoxyphenyl)-3′-oxo-2′,3′-dihydro-1′H-spiro[cyclopropane-1,4′-[2,7]naphthyridine]-6′-yl)-1-((tetrahydro-2H-pyran-4-yl)methyl)-1H-pyrazol-4-yl)acrylamide]",> 200 nM,>100,>100,>100,< 10 nM,> 200 nM,> 200 nM
"C=CC(=O)Nc1cn(CC(=O)N(C)C)nc1-c1cc2c(cn1)CN(c1c(F)c(OC)cc(OC)c1F)C(=O)C21CC1 [Example 36, N-(3-(2′-(2,6-difluoro-3,5-dimethoxyphenyl)-3′-oxo-2′,3′-dihydro-1′H-spiro[cyclopropane-1,4′-[2,7]naphthyridine]-6′-yl)-1-(2-(dimethylamino)-2-oxoethyl)-1H-pyrazol-4-yl)acrylamide]",> 200 nM,>100,>100,>100,< 10 nM,> 200 nM,> 200 nM
"C=CC(=O)Nc1ccc(C)c(-c2ncc3c(n2)C2(CC2)C(=O)N(c2c(F)c(OC)cc(OC)c2F)C3)c1 [Example 37, N-(3-(6′-(2,6-difluoro-3,5-dimethoxyphenyl)-7′-oxo-6′,7′-dihydro-5′H-spiro[cyclopropane-1,8′-pyrido[4,3-d]pyrimidine]-2′-yl)-4-methylphenyl)acrylamide]",> 200 nM,>100,>100,>100,< 10 nM,> 200 nM,> 200 nM

# Source: patent US9580423B2, “Bicyclic heterocycles as FGFR4 inhibitors” (Incyte Corporation, priority 2015, dated 2017)
